# Measured values taken from US9949948B2, “Artemisinin and its derivatives for use in the treatment of trauma haemorrhage and associated conditions” (Queen Mary University of London, priority 2011, dated 2018).
# Tested on: rats subjected to regional myocardial ischaemia and reperfusion
# Assay: Regional myocardial ischaemia and reperfusion, artesunate and dihydroartemisinin
# Assay type: in vivo, Wistar rats
# Protocol: Rats were anaesthetised with thiopentone sodium (Intraval® 120 mg/kg i.p.). Anaesthesia was maintained by supplementary injections of thiopentone sodium as required. The trachea was cannulated and the animals were ventilated with a Harvard ventilator (inspiratory oxygen concentration: 30%; 70 strokes/min, tidal volume: 8-10 ml/kg). Body temperature was maintained at 37±1° C. with the aid of a rectal probe thermometer attached to a homeothermic blanket unit (Harvard Apparatus Ltd., Edenbridge, Kent. U.K.). […] The right jugular vein was then cannulated for the administration of drugs and saline. A para-sternal thoracotomy was then performed, using an Electrosurgery device to cauterize the intercostals arteries before cutting through three ribs. The chest was retracted and pericardium dissected from the heart. The left anterior descending (LAD) coronary artery was isolated and a snare occluder was placed around the LAD. The retractor was then removed and the animal was allowed to stabilise for 15 min.
# The occluder was tightened at time 0. After 25 min of LAD-occlusion, the occluder was released to allow reperfusion of the previously ischemic myocardium (2 h). Haemodynamic parameters were continuously monitored. Baseline readings were taken prior to treatment, and, myocardial ischaemia reperfusion (IR) injury. The pressure rate index (PRI), a relative indicator of myocardial oxygen consumption was calculated as a product of the MAP (mmHg) and HR (beats/minute-bpm) and expressed in mm Hg bpm×10^−3.
# At the end of the 2 h reperfusion period, the LAD was re-occluded and 1 ml of Evans Blue dye (2% w/v) was injected into the animal, via the jugular vein. The Evans Blue dye stains the tissue it can circulate through, therefore the non-perfused vascular (occluded) tissue remains un-coloured. Each animal was killed with an over-dose of anaesthetic, the heart excised, and excess dye washed off. […] The ischaemic and non-ischaemic tissue was weighed, and the AAR expressed as a percentage of the left ventricle. The tissue from the AAR was cut into small pieces and incubated with p-nitroblue tetrazolium (NBT, 0.5 mg/ml) for 30 min at 37° C. NBT is a reducing agent that reacts with dehydrogenases present in viable (non-infarcted) tissue to produce a dark blue formazan. Infarcted tissue (non-viable) will not have dehydrogenase activity and will therefore fail to stain. The stained tissue was separated from the infarcted tissue, weighed, and the infarct size expressed as a percentage of the AAR.
# Sham-operated rats were subjected to surgical procedure without myocardial ischaemia and reperfusion.
# [1] = bolus 0.1 mg/kg upon reperfusion, P>0.05 vs Control
compound,measurement,setting,value
"C[C@@H]1CC[C@H]2[C@@H](C)C(O)O[C@H]3O[C@@]4(C)CC[C@@H]1[C@]32OO4 (stereo partly drawn) [dihydroartemisinin, (3R,5aS,6R,8aS,9R,12S,12aR)-decahydro-3,6,9-trimethyl-3,12-epoxy-12H-pyrano[4,3-j]-1,2-benzodioxepin-10-ol]",infarct size (percentage of the AAR),"0.1 mg/kg i.v. bolus upon reperfusion, from 59.8±3.2, P<0.05",46.5±1.3%
same,Infarct size reduction,"0.1 mg/kg i.v. upon reperfusion, vs control",40%
same,area at risk,"0.1 mg/kg, compared to vehicle treated rats",no significant effect
same,fall in mean arterial blood pressure caused by myocardial ischaemia and reperfusion,[1],did not attenuate
same,heart rate,[1],did not have a significant effect
